Measurements published in patent publication US20180353501A1 (Arvinas, Inc., priority 2017, published 2018).

Key:
Assay in all cases: Western blot MAPK family degradation selectivity, MDA-MB-231 cells
Type in all cases: cell-based
Settings in all cases: increasing concentrations
ERK1 = target: T1, ERK1 (Homo sapiens, UniProt P27361)
T1 construct: with increasing concentrations of exemplary compound 50 and 46 in MDA-MB-231 cells; endogenous in cells; host or cells: MDA-MB-231
Text: (§1) FIGS. 12A, 12B, and 12C. Characterization of MAPK family degradation selectivity (related to FIGS. 9A, 9B, 9C, 13A, 13B, 13C, and 13D). (A) p38 MAPK family members (α, β, δ, γ) were aligned using the T-Coffee multiple sequence alignment server. Output results were then colored according to conservation (dark turquoise) and identity (lighter shades of turquoise) in Jalview. (B) Table summarizing pairwise sequence alignments (obtained in Jalview) and structural alignments for Ca atoms (obtained in PyMOL) using the doublyphosphorylated (pTGpY) active conformations of p38δ (PDB: 4MYG), p38α (PDB: 3PY3), and p38γ (PDB: 1CM8). No active conformation crystal structure of p38β currently exists. […] MAPK families are also divided based on their phosphorylation lip motif, (pTxpY). Note: JNK1 and JNK2 are expressed as two alternatively-spliced forms. JNK3 was not expressed in these cells.
(§2) To address the mechanistic questions surrounding PROTAC substrate specificity was assessed by synthesizing eight foretinib-based PROTACs that vary by linker length and by orientation of the VHL-recruiting molecule. PROTACs 1 and 48-50 (termed the ‘amide series’) were constructed using the previously-characterized “left-hand side” amide as a connection point for linker attachment to the VHL ligand, while PROTACs 5 and 45-47 (termed the ‘phenyl series’) incorporated an under-explored “right-hand side” phenyl ring attachment point of the linker to the VHL ligand (FIGS. 9A and 9B). […] PROTACs synthesized with different linker lengths, using two different points of attachment to the VHL-recruiting ligand promote distinct E3 ligase interfaces with a given p38 isoform, thereby enabling potential degradation selectivity. Indeed, this strategy of differential orientation of recruited VHL coupled with different PROTAC linker lengths enabled the identification of two PROTACs that each selectively degrade only a single p38 MAPK isoform in MDA-MB-231 cells (FIG. 9C). The examplary compound 50 and exemplary compound 46 result in potent and selective degradation of p38α and p38δ, respectively, without an observable “hook effect” within the tested dose range. […] Crucially, the DC50 for exemplary compound 50 on p38δ is >5 μM, as is the DC50 of exemplary compound 46 for p38α. Additionally, neither exemplary PROTAC degrades either of the two remaining p38 MAPK isoforms (β and γ), despite high sequence and structural conservation.
(§3) Lysates from MDA-MB-231 cells were washed once with ice cold PBS (1×), followed by lysis in buffer containing 25 mM Tris [pH 7.5], 0.25% sodium deoxycholate, 1% Triton X-100, supplemented with 1× protease inhibitor cocktail (Roche) and phosphatase inhibitors (10 mM NaF, 1 mM Na3VO4, and 20 mM β-glycerophosphate), unless otherwise noted. Lysates were spun at 14,000×g for 10 minutes at 4° C. and supernatant was evaluated for protein content using a Pierce BCA Protein Assay (Thermo Fisher Scientific). 25 to 50 μg of protein was loaded onto 10% SDS-PAGE gels or 4-20% Criterion TGX precast gradient gels (Bio-Rad), transferred to nitrocellulose membranes, and probed with the specified antibodies overnight at 4° C. in 1×TBS-Tween (Tris buffered saline plus 0.02% Tween 20) containing 5% non-fat milk. Immunoblots were visualized using a Bio-Rad ChemiDoc imaging instrument and subsequently processed and quantified using the accompanying Bio-Rad ImageLab software.

JNK1 = tested on: JNK1
Text: as §1, §2, §3

p38γ = target: T2, p38γ (Homo sapiens, UniProt P53778)
T2 construct: with increasing concentrations of exemplary compound 50 and 46 in MDA-MB-231 cells; endogenous in cells; host or cells: MDA-MB-231
T2 sequence (P53778 whole entry): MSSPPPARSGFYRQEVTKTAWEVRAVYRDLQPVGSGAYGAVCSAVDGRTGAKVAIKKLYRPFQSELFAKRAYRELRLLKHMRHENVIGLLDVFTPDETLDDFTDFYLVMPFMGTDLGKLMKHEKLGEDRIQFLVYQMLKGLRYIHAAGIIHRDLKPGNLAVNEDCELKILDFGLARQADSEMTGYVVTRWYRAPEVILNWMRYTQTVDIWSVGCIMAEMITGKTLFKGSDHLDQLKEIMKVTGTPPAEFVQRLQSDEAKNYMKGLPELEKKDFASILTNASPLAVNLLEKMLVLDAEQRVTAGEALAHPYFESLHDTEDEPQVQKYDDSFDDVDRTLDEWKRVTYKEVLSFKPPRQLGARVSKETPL
Text: as §1, §2, §3

ERK2 = target: T3, ERK2 (Homo sapiens, UniProt P28482)
T3 construct: with increasing concentrations of exemplary compound 50 and 46 in MDA-MB-231 cells; endogenous in cells; host or cells: MDA-MB-231
T3 sequence (P28482 whole entry): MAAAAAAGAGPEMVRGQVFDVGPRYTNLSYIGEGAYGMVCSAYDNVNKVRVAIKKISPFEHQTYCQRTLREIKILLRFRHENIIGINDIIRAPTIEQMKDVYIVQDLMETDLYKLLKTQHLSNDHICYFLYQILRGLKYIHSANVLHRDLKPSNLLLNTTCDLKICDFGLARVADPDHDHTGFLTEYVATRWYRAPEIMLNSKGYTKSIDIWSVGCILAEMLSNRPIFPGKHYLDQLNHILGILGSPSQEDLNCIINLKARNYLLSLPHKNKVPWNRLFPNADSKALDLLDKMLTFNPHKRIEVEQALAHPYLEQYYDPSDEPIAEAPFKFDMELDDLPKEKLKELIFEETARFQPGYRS
Text: as §1, §2, §3

p38β = target: T4, p38β (Homo sapiens, UniProt Q15759)
T4 construct: with increasing concentrations of exemplary compound 50 and 46 in MDA-MB-231 cells; endogenous in cells; host or cells: MDA-MB-231
T4 sequence (Q15759 whole entry): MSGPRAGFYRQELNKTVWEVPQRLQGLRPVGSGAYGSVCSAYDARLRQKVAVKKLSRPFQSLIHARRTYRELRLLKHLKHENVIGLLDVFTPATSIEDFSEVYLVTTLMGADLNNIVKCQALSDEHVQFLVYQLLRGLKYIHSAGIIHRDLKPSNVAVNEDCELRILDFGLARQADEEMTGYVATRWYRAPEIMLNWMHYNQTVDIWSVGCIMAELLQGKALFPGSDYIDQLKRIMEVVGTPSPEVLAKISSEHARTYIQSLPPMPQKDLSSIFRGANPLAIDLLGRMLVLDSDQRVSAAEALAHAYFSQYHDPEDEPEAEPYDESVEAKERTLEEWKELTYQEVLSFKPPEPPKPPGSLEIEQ
Text: as §1, §2, §3

JNK2 = tested on: JNK2
Text: as §1, §2, §3

T1 sequence (P27361 whole entry): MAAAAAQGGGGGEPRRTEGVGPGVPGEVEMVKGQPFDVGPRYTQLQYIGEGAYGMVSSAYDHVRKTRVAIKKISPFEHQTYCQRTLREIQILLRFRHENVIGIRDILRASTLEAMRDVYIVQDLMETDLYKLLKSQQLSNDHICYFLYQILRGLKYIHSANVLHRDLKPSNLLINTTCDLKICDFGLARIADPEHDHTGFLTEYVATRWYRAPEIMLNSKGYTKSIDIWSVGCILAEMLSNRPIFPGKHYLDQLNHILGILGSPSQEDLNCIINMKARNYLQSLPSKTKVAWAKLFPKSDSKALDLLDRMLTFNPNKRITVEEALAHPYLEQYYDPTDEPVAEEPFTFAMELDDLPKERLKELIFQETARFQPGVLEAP

COc1cc2c(Oc3ccc(NC(=O)C4(C(=O)Nc5ccc(F)cc5)CC4)cc3F)ccnc2cc1OCCOCCOCCOc1cc(-c2scnc2C)ccc1CNC(=O)[C@@H]1C[C@@H](O)CN1C(=O)[C@H](C(C)C)N1Cc2ccccc2C1=O [compound 46]
lack of degradation: degradation of ERK1 (ERK1) | degradation of JNK1 (JNK1) | degradation of p38γ (p38γ) | degradation of ERK2 (ERK2) | degradation of p38β (p38β) | degradation of JNK2 (JNK2)

COc1cc2c(Oc3ccc(NC(=O)C4(C(=O)Nc5ccc(F)cc5)CC4)cc3F)ccnc2cc1OCCCCOCCCCOCC(=O)N[C@H](C(=O)N1C[C@H](O)C[C@H]1C(=O)NCc1ccc(-c2scnc2C)cc1)C(C)(C)C [compound 50, N-(3-fluoro-4-((7-(4-(4-(2-(((S)-1-((2S,4R)-4-hydroxy-2-((4-(4-methylthiazol-5-yl)benzyl)carbamoyl)pyrrolidin-1-yl)-3,3-dimethyl-1-oxobutan-2-yl)amino)-2-oxoethoxy)butoxy)buto-xy)-6-methoxyquinolin-4-yl)oxy)phenyl)-N-(4-fluorophenyl)cyclopropane-1,1-dicarboxa-mide]
lack of degradation: degradation of ERK1 (ERK1) | degradation of JNK1 (JNK1) | degradation of p38γ (p38γ) | degradation of ERK2 (ERK2) | degradation of p38β (p38β) | degradation of JNK2 (JNK2)
